These results are taken from patent US20050043371A1, “Aminoalcohol derivatives and their use as beta 3 adrenergic agonists” (Fujisawa Pharmaceutical Co. Ltd., priority 1999, published 2005).

Molecules are shown by their SMILES.

One data set deals with anesthetized dog. Briefly: Effect on the increase in intravesical pressure induced by carbachol in anesthetized dog. It is filed as in vivo. As to conditions: 0.01 mg/kg injected intravenously 5 minutes before carbachol (1.8 μg/kg); female Beagle dogs under halothane anesthesia; N = 3; P < 0.01 vs Control (4.5 ± 0.3). As to the method:
Effect on the increase in intravesical pressure induced by carbachol in anesthetized dog
Female Beagle dogs weighing 8.0-15.0 kg were fasted for 24 hours and maintained under halothane anesthesia. A 12F Foley catheter was lubricated with water soluble jelly, inserted into the urethral orifice and advanced approximately 10 cm until the balloon tip was placed well inside the bladder. The balloon was then inflated with 5 ml of room air and catheter slowly withdrawn just part the first resistance that is felt at the bladder neck. Urine was completely drained out through the catheter, and 30 ml of biological saline was infused. The catheter was connected to pressure transducer, and intravesical pressure was continuously recorded. The test compound was injected intravenously at 5 minutes before the administration of carbachol (1.8 μg/kg).

Broadly, the melting point is the temperature, or range, at which the solid turns liquid. Turning to `COc1ccc(C(C[C@@H](C)NC[C@H](O)COc2ccccc2)c2ccc(OC)cc2)cc1.O=C(O)C(=O)O`, the melting point lay in the range of 121 to 123 °C. `COc1ccc(C(C[C@H](C)NC[C@H](O)COc2ccccc2)c2ccc(OC)cc2)cc1.O=C(O)C(=O)O` registered a melting point of 79 to 94 °C. For the molecule `CC(CC(c1ccc(O)cc1)c1ccc(O)cc1)NC[C@H](O)COc1ccccc1.Cl` (mixture of isomers) [Test Compound (1), (2S)-1-[[(2RS)-4,4-bis(4-hydroxyphenyl)-2-butyl]amino]-3-phenoxy-2-propanol hydrochloride] [listing 1 of 2 here], the “Increase in intravescial pressure (mmHg)” value in the data set with anesthetized dog was found to be 2.5 ± 0.3 mmHg. Regarding `CC(CC(c1ccc(O)cc1)c1ccc(O)cc1)NC[C@H](O)COc1ccccc1.Cl` (mixture of isomers) [Test Compound (1), (2S)-1-[[(2RS)-4,4-bis(4-hydroxyphenyl)-2-butyl]amino]-3-phenoxy-2-propanol hydrochloride] [listing 2 of 2 here], the melting point is 73 °C (dec.).
